Laboratory results: the supplement of paper PMC6045584
± gives the standard deviation of the averaged measurements.

What was measured:
FLUOROURACIL = compound: O=c1[nH]cc(F)c(=O)[nH]1 [FLUOROURACIL]; test: surviving fraction relative to DMSO-only wells; higher = less growth inhibition; details: exposure time: 5 days
Procedure, shortened: (§1)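 Viability was determined by CellTiter-Glo luminescence, expressed as surviving fraction normalised to the median of DMSO-only wells. The cells were log-phase tumour cell lines seeded at 250–500 per well in 384-well plates and, after 24 hours, exposed continuously for five days to inhibitors at 0.5, 1, 5, 10, 50, 100, 500 and 1000 nM. Three screens per line were run, keeping only lines with replicate Pearson r >0.7 and median Z' >0.3.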

ABT-737 = compound: CN(C)CC[C@H](CSc1ccccc1)Nc1ccc(S(=O)(=O)NC(=O)c2ccc(N3CCN(Cc4ccccc4-c4ccc(Cl)cc4)CC3)cc2)cc1[N+](=O)[O-] [ABT-737]; test: as above; details: exposure time: 5 days
Procedure, shortened: as §1

Test System	surviving fraction (FLUOROURACIL; 0.5 nM)	surviving fraction (FLUOROURACIL; 1 nM)	surviving fraction (FLUOROURACIL; 5 nM)	surviving fraction (FLUOROURACIL; 10 nM)	surviving fraction (FLUOROURACIL; 50 nM)	surviving fraction (FLUOROURACIL; 100 nM)	surviving fraction (FLUOROURACIL; 500 nM)	surviving fraction (FLUOROURACIL; 1000 nM)	surviving fraction (ABT-737; 0.5 nM)	surviving fraction (ABT-737; 1 nM)	surviving fraction (ABT-737; 5 nM)	surviving fraction (ABT-737; 10 nM)	surviving fraction (ABT-737; 50 nM)	surviving fraction (ABT-737; 100 nM)	surviving fraction (ABT-737; 500 nM)	surviving fraction (ABT-737; 1000 nM)
22RV1 PROSTATE	1.07 ± 0.11	0.936 ± 0.068	1.1 ± 0.11	0.946 ± 0.13	1.09 ± 0.053	1.104 ± 0.011	0.957 ± 0.15	0.705 ± 0.18	0.997 ± 0.07	1.13 ± 0.22	1.03 ± 0.063	0.995 ± 0.079	1.07 ± 0.086	1.03 ± 0.13	1.1 ± 0.042	0.96 ± 0.097
93VU HEADNECK	1.01 ± 0.11	1 ± 0.052	1.07 ± 0.089	1.05 ± 0.11	0.884 ± 0.082	0.884 ± 0.0072	0.665 ± 0.062	0.882 ± 0.063	1.146 ± 0.0083	1.09 ± 0.057	1.21 ± 0.19	1.16 ± 0.031	1.23 ± 0.069	1.17 ± 0.09	1.12 ± 0.09	1.04 ± 0.074
143B BONE	1.12 ± 0.15	1.11 ± 0.079	1.14 ± 0.11	1.11 ± 0.094	1.14 ± 0.17	1.12 ± 0.13	1.1 ± 0.12	0.929 ± 0.029	1.08 ± 0.042	1.09 ± 0.027	1.14 ± 0.092	1.11 ± 0.071	1.13 ± 0.054	1.115 ± 0.0057	1.12 ± 0.037	1.14 ± 0.064
A549 LUNG	1.093 ± 0.0015	1.055 ± 0.007	1.051 ± 0.001	1.04 ± 0.032	1.11 ± 0.019	1.029 ± 0.0045	1.05 ± 0.025	0.554 ± 0.046	1.06 ± 0.012	1.05 ± 0.022	1.07 ± 0.023	1.06 ± 0.03	1.07 ± 0.039	1.09 ± 0.039	1.12 ± 0.044	1.05 ± 0.053
ASKA SYNOVIAL	1.1 ± 0.072	1.06 ± 0.081	1.17 ± 0.021	1.04 ± 0.024	1.01 ± 0.05	0.937 ± 0.066	0.919 ± 0.068	0.775 ± 0.042	1.15 ± 0.031	1.19 ± 0.044	1.2 ± 0.027	1.16 ± 0.047	1.1 ± 0.05	1.11 ± 0.076	0.914 ± 0.084	0.79 ± 0.066
BT20 BREAST	1.15 ± 0.11	1.18 ± 0.11	1.25 ± 0.058	1.16 ± 0.07	0.844 ± 0.079	0.836 ± 0.049	1.09 ± 0.049	0.929 ± 0.1	1.2 ± 0.061	1.19 ± 0.089	1.15 ± 0.06	1.26 ± 0.06	1.14 ± 0.14	1.18 ± 0.13	1.14 ± 0.043	1.07 ± 0.064
BT549 BREAST	1.07 ± 0.13	1.06 ± 0.024	1.05 ± 0.21	0.95 ± 0.12	0.8 ± 0.06	0.843 ± 0.15	0.872 ± 0.084	0.585 ± 0.071	0.996 ± 0.018	0.867 ± 0.047	1.12 ± 0.075	0.782 ± 0.043	1.12 ± 0.029	0.771 ± 0.095	1.04 ± 0.16	0.841 ± 0.097
C33A CERVIX	1 ± 0.086	1.12 ± 0.043	1.08 ± 0.11	1.16 ± 0.05	1.1 ± 0.055	1.1 ± 0.06	1.02 ± 0.085	1.28 ± 0.055	0.932 ± 0.1	0.973 ± 0.088	1.08 ± 0.013	1.08 ± 0.12	1.02 ± 0.14	1.1 ± 0.09	0.927 ± 0.11	1.04 ± 0.15
CADOES1 SOFT TISSUE	0.969 ± 0.035	0.925 ± 0.057	0.907 ± 0.13	0.963 ± 0.097	0.968 ± 0.03	0.912 ± 0.098	0.905 ± 0.055	0.775 ± 0.081	0.92 ± 0.1	0.85 ± 0.18	0.915 ± 0.1	0.874 ± 0.039	0.748 ± 0.081	0.679 ± 0.068	0.679 ± 0.015	0.689 ± 0.049
CAL51 BREAST	0.931 ± 0.016	0.918 ± 0.09	0.944 ± 0.048	0.971 ± 0.016	1 ± 0.057	0.904 ± 0.017	0.915 ± 0.015	0.763 ± 0.018	1.03 ± 0.062	0.941 ± 0.066	1.07 ± 0.031	1.04 ± 0.02	1.04 ± 0.021	1.08 ± 0.086	1.09 ± 0.017	0.959 ± 0.048
CAL72 BONE	1.07 ± 0.014	1.056 ± 0.0093	1.03 ± 0.051	1.05 ± 0.039	1.02 ± 0.037	0.944 ± 0.093	0.955 ± 0.16	0.751 ± 0.16	1.04 ± 0.13	1.06 ± 0.12	1.06 ± 0.1	1.05 ± 0.12	1.11 ± 0.14	1.06 ± 0.13	1.08 ± 0.12	1.06 ± 0.17
CAL120 BREAST	0.986 ± 0.039	0.991 ± 0.041	0.989 ± 0.034	0.979 ± 0.069	0.967 ± 0.015	0.938 ± 0.032	0.983 ± 0.043	0.803 ± 0.024	0.984 ± 0.03	0.9688 ± 0.0083	0.981 ± 0.051	0.984 ± 0.061	0.997 ± 0.018	0.998 ± 0.038	0.992 ± 0.012	0.773 ± 0.11
CASKI CERVIX	0.957 ± 0.037	0.928 ± 0.045	0.935 ± 0.04	0.941 ± 0.068	0.92 ± 0.046	0.916 ± 0.066	0.801 ± 0.045	0.555 ± 0.033	0.912 ± 0.075	0.896 ± 0.038	0.9707 ± 0.0083	0.937 ± 0.021	1.08 ± 0.015	1.06 ± 0.094	0.931 ± 0.092	0.715 ± 0.026
CHLA90 AUTONOMIC GANGLIA	0.951 ± 0.021	0.946 ± 0.043	0.939 ± 0.059	1 ± 0.13	1.07 ± 0.054	1.04 ± 0.084	0.91 ± 0.12	0.886 ± 0.09	0.98 ± 0.054	0.955 ± 0.068	0.961 ± 0.043	0.99 ± 0.091	1.02 ± 0.064	1.01 ± 0.12	0.979 ± 0.093	0.997 ± 0.13
CME SYNOVIAL	1.35 ± 0.12	1.26 ± 0.024	1.27 ± 0.032	1.21 ± 0.036	1.02 ± 0.1	1.03 ± 0.1	0.931 ± 0.15	0.554 ± 0.017	1.33 ± 0.17	1.37 ± 0.049	1.42 ± 0.099	1.37 ± 0.11	1.27 ± 0.23	1.42 ± 0.14	1.21 ± 0.099	1.23 ± 0.07
COLO320DM LARGE INTESTINE	1.07 ± 0.14	1.06 ± 0.051	1.09 ± 0.019	1.05 ± 0.1	0.988 ± 0.083	0.863 ± 0.053	0.492 ± 0.035	0.347 ± 0.023	1.09 ± 0.057	1.13 ± 0.085	1.04 ± 0.14	1.03 ± 0.12	1.19 ± 0.083	1.12 ± 0.03	1.21 ± 0.13	1.13 ± 0.055
DU4475 BREAST	0.972 ± 0.062	1.06 ± 0.068	0.934 ± 0.12	1.13 ± 0.12	1.01 ± 0.16	0.987 ± 0.27	1.06 ± 0.081	0.939 ± 0.1	0.935 ± 0.13	0.973 ± 0.042	0.943 ± 0.13	0.865 ± 0.1	0.797 ± 0.13	0.715 ± 0.012	0.373 ± 0.067	0.203 ± 0.047
H23 LUNG	1.06 ± 0.062	1.02 ± 0.034	1.05 ± 0.026	1.04 ± 0.036	1.1 ± 0.061	1.02 ± 0.046	1.04 ± 0.044	0.659 ± 0.029	1.01 ± 0.043	1.06 ± 0.077	1.05 ± 0.066	1.06 ± 0.017	1.07 ± 0.067	1.1 ± 0.087	1.08 ± 0.065	1.048 ± 0.004
HCC78 LUNG	1.01 ± 0.16	0.913 ± 0.1	1.19 ± 0.12	0.986 ± 0.062	1.28 ± 0.093	1.1 ± 0.15	0.973 ± 0.1	0.432 ± 0.036	0.9693 ± 0.0035	0.955 ± 0.076	0.969 ± 0.1	1.08 ± 0.15	1.04 ± 0.062	0.92 ± 0.2	0.967 ± 0.19	0.939 ± 0.2
HCC202 BREAST	1.03 ± 0.41	1.22 ± 0.26	1.02 ± 0.15	1.13 ± 0.24	0.966 ± 0.12	1.15 ± 0.52	0.895 ± 0.3	0.866 ± 0.29	1.36 ± 0.084	1.17 ± 0.2	1.07 ± 0.069	1.43 ± 0.17	1.1 ± 0.16	1.31 ± 0.17	1.15 ± 0.5	0.965 ± 0.018
